# Data from patent publication US6369225B1, “Compounds having activity as inhibitors of cytochrome P450RAI” (Allergan Sales, Inc., priority 2000, dated 2002).
# How the values were obtained:
# RARβ = target: T1, RARβ (Homo sapiens, UniProt P10826); experiment: ligand binding assay, RARβ; conditions: Kd line of EC50/(EFFICACY)/Kd, read-out: RAR Kd β
# T1 sequence (P10826 1-455): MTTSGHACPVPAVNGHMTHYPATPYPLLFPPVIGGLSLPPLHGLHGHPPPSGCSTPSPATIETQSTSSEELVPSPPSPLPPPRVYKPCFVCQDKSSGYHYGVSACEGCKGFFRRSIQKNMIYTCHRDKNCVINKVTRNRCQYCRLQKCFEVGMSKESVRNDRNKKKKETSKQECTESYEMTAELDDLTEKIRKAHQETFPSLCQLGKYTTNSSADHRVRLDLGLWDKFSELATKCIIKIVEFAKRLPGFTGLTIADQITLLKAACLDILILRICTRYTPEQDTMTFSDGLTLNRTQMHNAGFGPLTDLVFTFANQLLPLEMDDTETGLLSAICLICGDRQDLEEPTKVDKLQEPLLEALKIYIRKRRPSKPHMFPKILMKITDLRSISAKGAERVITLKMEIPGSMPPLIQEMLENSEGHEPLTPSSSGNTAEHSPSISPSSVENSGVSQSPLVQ
# From the text: (§1) Assays described below measure the ability of a compound to bind to, and/or activate various retinoid receptor subtypes. When in these assays a compound binds to a given receptor subtype and activates the transcription of a reporter gene through that subtype, then the compound is considered an agonist of that receptor subtype. […] In the below described assays the ability of the compounds to bind to RARα, RARβ, RARγ, RXRα, RXRβ and RXRγ receptors, and the ability or inability of the compounds to activate transcription of a reporter gene through these receptor subtypes can be tested.
# A holoreceptor transactivation assay and a ligand binding assay which measure the antagonist/agonist like activity of the compounds of the invention, or their ability to bind to the several retinoid receptor subtypes, respectively, are described in published PCT Application No. WO WO93/11755 (particularly on pages 30-33 and 37-41) published on Jun. 24, 1993, the specification of which is also incorporated herein by reference. […] The results obtained in this assay are expressed in EC50 numbers, as they are also in the chimeric receptor transactivation assay. The results of ligand binding assay are expressed in Kd numbers. (See Cheng et al. Biochemical Pharmacology Vol. 22 pp 3099-3108, expressly incorporated herein by reference.)
# RARα = target: T2, RARα (Homo sapiens, UniProt P10276); experiment: ligand binding assay, RARα; conditions: Kd line of EC50/(EFFICACY)/Kd, read-out: RAR Kd α
# T2 sequence (P10276 1-462): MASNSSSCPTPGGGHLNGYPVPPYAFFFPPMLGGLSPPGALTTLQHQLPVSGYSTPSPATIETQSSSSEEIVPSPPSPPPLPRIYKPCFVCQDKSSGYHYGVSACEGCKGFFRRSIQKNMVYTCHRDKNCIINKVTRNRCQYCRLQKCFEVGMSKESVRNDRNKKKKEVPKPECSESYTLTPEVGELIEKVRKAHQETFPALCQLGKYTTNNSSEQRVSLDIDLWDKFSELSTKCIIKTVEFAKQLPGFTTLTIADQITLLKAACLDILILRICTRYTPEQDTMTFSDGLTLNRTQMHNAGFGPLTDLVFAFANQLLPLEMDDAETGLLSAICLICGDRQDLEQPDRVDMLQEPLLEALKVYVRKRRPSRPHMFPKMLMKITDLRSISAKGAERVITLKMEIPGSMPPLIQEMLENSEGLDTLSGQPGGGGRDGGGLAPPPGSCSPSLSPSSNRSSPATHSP
# From the text: as §1
# (§2) A holoreceptor transactivation assay and a ligand binding assay which measure the antagonist/agonist like activity of the compounds of the invention, or their ability to bind to the several retinoid receptor subtypes, respectively, are described in published PCT Application No. WO WO93/11755 (particularly on pages 30-33 and 37-41) published on Jun. 24, 1993, the specification of which is also incorporated herein by reference. A detailed experimental procedure for holoreceptor transactivations has been described by Heyman et al. Cell 68, 397-406, (1992); Allegretto et al. J. Biol. Chem. 268, 26625-26633, and Mangelsdorf et al. The Retinoids: Biology, Chemistry and Medicine, pp 319-349, Raven Press Ltd., New York, which are expressly incorporated herein by reference. The results obtained in this assay are expressed in EC50 numbers, as they are also in the chimeric receptor transactivation assay. The results of ligand binding assay are expressed in Kd numbers. (See Cheng et al. Biochemical Pharmacology Vol. 22 pp 3099-3108, expressly incorporated herein by reference.)
# (§3) The results if the ligand binding assay for several preferred compounds of the invention are included in Table 1.
# P450RAI-1 = target: T3, P450RAI-1 (Homo sapiens, UniProt O43174); experiment: P450RAI-1 cell-based inhibitor assay; conditions: P450RAI-1 stably transfected HeLa cells, [3H]-RA metabolism, 3 hours at 37° C.; read-out: P450RAI INHIBITION DATA INTACT HELA IC50
# T3 construct: expressed in transfected cells; host or cells: HeLa cells, stably transfected, hygromycin selection
# T3 sequence (O43174 1-497): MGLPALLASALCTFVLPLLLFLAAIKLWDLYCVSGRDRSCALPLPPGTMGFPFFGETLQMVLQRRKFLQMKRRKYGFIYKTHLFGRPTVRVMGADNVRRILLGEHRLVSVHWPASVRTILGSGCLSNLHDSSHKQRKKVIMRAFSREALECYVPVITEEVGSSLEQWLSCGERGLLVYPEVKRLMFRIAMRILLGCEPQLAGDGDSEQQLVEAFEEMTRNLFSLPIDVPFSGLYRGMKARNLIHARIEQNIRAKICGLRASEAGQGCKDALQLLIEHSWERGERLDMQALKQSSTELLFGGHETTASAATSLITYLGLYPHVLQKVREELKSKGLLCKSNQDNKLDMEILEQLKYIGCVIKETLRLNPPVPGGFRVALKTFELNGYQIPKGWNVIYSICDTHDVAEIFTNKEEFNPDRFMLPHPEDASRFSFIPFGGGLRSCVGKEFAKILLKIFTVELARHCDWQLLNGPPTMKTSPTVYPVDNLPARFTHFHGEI
# Experimental: P450RAI-1 stably transfected HeLa cells are maintained in […] tissue culture dishes in Modified Eagle's Medium (MEM) containing 10% Fetal Bovine Serum (FBS) and 100 μg/ml hygromycin. Exponentially growing cells are harvested by incubating in trypsin. Cells are then washed with 1× Phosphate Buffered Saline (PBS) and plated in a 48-well plate at 5×10^5 cells in 0.2 ml MEM medium containing 10% FBS and 0.05 μCi[^3H]-RA in the presence or absence of increasing concentrations of the test compounds. The compounds are diluted in 100% DMSO and then added in triplicate wells at either 10, 1 or 0.1 μM final concentration. As a positive control for RA metabolism inhibition, cells are also incubated with ketoconazole at 100, 10 and 1 μM. Cell are incubated for 3 hours at 37° C. […] The water soluble radioactivity is quantified using a β-scintillation counter. IC50 values represent the concentration of inhibitor required to inhibit all-trans-RA metabolism by 50 percent and are derived manually from log-transformed data.
# RARγ = target: T4, RARγ (Homo sapiens, UniProt P13631); experiment: ligand binding assay, RARγ; conditions: Kd line of EC50/(EFFICACY)/Kd, read-out: RAR Kd γ
# T4 sequence (P13631 1-454): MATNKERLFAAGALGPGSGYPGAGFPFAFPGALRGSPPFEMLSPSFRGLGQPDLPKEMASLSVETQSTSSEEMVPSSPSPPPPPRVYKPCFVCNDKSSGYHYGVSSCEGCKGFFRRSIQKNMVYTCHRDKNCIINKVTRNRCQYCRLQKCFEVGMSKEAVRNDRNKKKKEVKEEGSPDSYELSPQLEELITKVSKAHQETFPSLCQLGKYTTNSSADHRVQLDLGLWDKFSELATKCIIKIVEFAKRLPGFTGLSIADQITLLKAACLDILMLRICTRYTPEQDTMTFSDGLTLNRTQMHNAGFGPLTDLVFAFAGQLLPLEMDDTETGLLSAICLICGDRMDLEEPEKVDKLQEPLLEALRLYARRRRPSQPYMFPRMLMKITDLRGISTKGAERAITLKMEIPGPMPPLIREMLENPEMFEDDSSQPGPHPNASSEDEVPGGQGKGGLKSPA
# From the text: as §1, §2, §3
Kd (RARα),Kd (RARγ),Structure (SMILES),Kd (RARβ),IC50 (P450RAI-1)
–,–,"CC1(C)CN(C2CC2)Cc2ccc(C#Cc3ccc(CC(=O)O)cc3)cc21 [Compound 24, [4-(2-Cyclopropyl-4,4-dimethyl-1,2,3,4-tetrahydro-isoquinoline-6-yl-ethynyl)-phenyl]-acetic Acid]",–,3 µM
> 10 µM,> 10 µM,"COC1(c2ccc(C#Cc3ccc(CC(=O)O)cc3)cc2)CC1 [Compound 70, {4-[4-(1-Methoxycyclopropyl)-phenylethynyl]-phenyl}-acetic Acid]",> 10 µM,> 10 µM
–,–,"COc1c(C(C)(C)C)cc(C#Cc2ccc(CC(=O)O)c(F)c2)cc1C(C)(C)C [Compound 145, [4-(3,5-Di-tert-butyl-4-methoxy-phenylethynyl)-2-fluoro-phenyl]-acetic Acid]",–,0.2 µM
–,–,"CCc1cc(C#Cc2ccc(CC(=O)O)cc2)cc2c1OC(C)(C)CC2(C)C [Compound 56, [4-(8-Ethyl-2,2,4,4-tetramethyl-chroman-6-yl-ethynyl)phenyl]acetic Acid]",–,0.13 µM
> 10 µM,> 100 µM,"Cc1cc(C#Cc2ccc(CC(=O)O)cc2)ccc1Cn1ccnc1 [Compound 121, [4-(4-Imidazol-1-yl-methyl-3-methyl-phenylethynyl)-phenyl]-acetic Acid]",–,–
–,–,"CC1(C)CC2(CC2)Oc2c(C3CC3)cc(C#Cc3ccc(C(=O)O)c(F)c3)cc21 [Compound 54, 4-[(8-Cyclopropyl-3,4-dihydro-4,4-dimethylspiro[2H-1-benzopyran-2,1′-cyclopropane]-6-yl)ethynyl]-2-fluoro-benzoic Acid]",–,0.022 µM
–,–,"CC1(C)CCC(=O)c2ccc(C(=O)Oc3ccc(CC(=O)O)cc3)cc21 [Compound 20, 8,8-Dimethyl-5-oxo-5,6,7,8-tetrahydro-naphthalene-2-carboxylic Acid-4-(carboxymethyl)phenyl Ester]",–,> 10 µM
–,–,"CC1(C)CC2(CC2)Oc2c(C3CC3)cc(C(=O)Oc3cccc(CC(=O)O)c3)cc21 [Compound 60, Spiro[2H-1-benzopyran-2,1′-cyclopropane]-6-carboxylic Acid, 8-cyclopropyl-3,4-dihydro-4,4-dimethyl-, 3-(carboxymethyl)phenyl Ester]",–,1.6 µM
–,–,"CC1(C)CC(C)(C)c2cc(C(=O)Oc3ccc(CC(=O)O)cc3)ccc2O1 [Compound 46, 1,2,2,4,4-Tetramethyl-chroman-6-carboxylic Acid 4-(carboxymethyl)phenyl Ester]",–,2.2 µM
–,–,"COc1c(C(C)(C)C)cc(C#Cc2ccc(CC(=O)O)cc2)cc1C(C)(C)C [Compound 143, [4-(3,5-Di-tert-butyl-4-methoxy-phenylethynyl)-phenyl]-acetic Acid]",–,0.8 µM
–,–,"CC1(C)CCN(C2CC2)c2ccc(C#Cc3ccc(C(=O)O)cc3)cc21 [Compound 62, 4-(1-Cyclopropyl-4,4-dimethyl-1,2,3,4-tetrahydroquinolin-6-yl-ethynyl)-benzoic Acid]",–,> 10 µM
–,–,"CC1(C)CC2(CC2)Oc2c(C3CC3)cc(C#Cc3ccc(C(=O)O)cc3)cc21 [Compound 52, Benzoic Acid, 4-[(8-cyclopropyl-3,4-dihydro-4,4-dimethylspiro[2H-1-benzopyran-2,1′-cyclopropane]-6-yl)ethynyl]-]",–,0.05 µM
> 10 µM,> 10 µM,"O=C(O)c1ccc(C#Cc2ccc(C3(N(Cc4ccccc4)Cc4ccccc4)CC3)cc2)cc1 [Compound 114, 4-[4-(1-Dibenzylamino-cyclopropyl)-phenylethynyl]-benzoic Acid]",–,> 10 µM
–,–,CC1(C)CCC(n2ccnc2)c2ccc(C#Cc3ccc(C(=O)O)cc3)cc21 (centres unmarked) [Compound 139],–,0.05 µM
–,–,"CCc1cc(C#Cc2ccc(CC(=O)O)cc2)ccc1C1(OC(C)C)CC1 [Compound 98, {4-[4-(1-Isopropoxycyclopropyl)-3-ethyl-phenylethynyl]-phenyl}-acetic Acid]",–,0.8 µM
–,–,"CCN(Cc1ccc(C#Cc2ccc(C(=O)O)cc2)cc1C(C)C)C1CC1 [Compound 134, 4-{4-[(Cyclopropyl-ethyl-amino)-methyl]-3-isopropyly-phenylethynyl}-benzoic Acid]",–,5 µM

Structure (SMILES),Kd (RARα),Kd (RARγ),Kd (RARβ),IC50 (P450RAI-1)
"CC1(C)CC(C)(C)c2cc(C#Cc3ccc(CC(=O)O)c(F)c3)ccc2O1 [Compound 32, [2-Fluoro-4-(2,2,4,4-tetramethyl-chroman-6-yl-ethynyl)phenyl]acetic Acid]",27 µM,13 µM,4.22 µM,0.18 µM
